Reference: patent US11214803B2, “Modulators of YAP1 expression” (Ionis Pharmaceuticals, Inc., priority 2019, dated 2022)
Strand notation (5' to 3'): a small letter for the sugar, then the base; units joined by * are phosphorothioate-linked, units joined directly phosphodiester-linked; [ ] holds rarer units or linkages, { } end groups; capitals alone tell only the bases. k = constrained ethyl (cEt); [5mC] = 5-methylcytosine; d = 2'-deoxy (DNA)

Test system: Yap1 mRNA
Test: Antisense inhibition of human Yap1 in A-431 cells by cEt gapmers, single dose (Example 2, RTS4814)
Format: cell-based
How it was run: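 Each 16-nucleoside gapmer (ten-deoxy gap, three-cEt wings) is tested once at 2,000 nM in A-431 cells by free uptake. Yap1 mRNA after about 48 hours is measured by quantitative RT-PCR and expressed relative to untreated control.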

[1] = Yap1 mRNA as percent of untreated control, A-431 cells, 3-10-3 cEt gapmers targeting SEQ ID NO.: 1, and 2, Table 30
[2] = Yap1 mRNA as percent of untreated control, A-431 cells, 3-10-3 cEt gapmers targeting SEQ ID NO.: 1, and 2, Table 31
[3] = Table 22, Yap1 mRNA as percent of untreated control, 3-10-3 cEt gapmers, single dose
[4] = A-431 cells, 5,000 cells per well, free uptake, 2,000 nM modified oligonucleotide, approx. 48 hours, RTS4814, normalized to RIBOGREEN, Table 4, asterisk (*) = targets amplicon region of primer probe set
[5] = Table 19, A-431 cells, 5,000 cells per well, free uptake, 2,000 nM modified oligonucleotide, approx. 48 hours, RTS4814, normalized to RIBOGREEN, Yap1 mRNA as percent of untreated control
[6] = Table 24, Yap1 mRNA as percent of untreated control, 3-10-3 cEt gapmers targeting SEQ ID NO.: 1, and 2
[7] = Table 20, Yap1 mRNA, percent of untreated control, 3-10-3 cEt gapmers targeting SEQ ID NO.: 1 and 2
[8] = Table 25, Yap1 mRNA as percent of untreated control, 3-10-3 cEt gapmers targeting SEQ ID NO.: 1, and 2
[9] = Table 6, A-431 cells, 5,000 cells per well, free uptake, 2,000 nM modified oligonucleotide, approx. 48 hours, RTS4814, normalized to RIBOGREEN, Yap1 mRNA relative to untreated control cells
[10] = Table 18, A-431 cells, 5,000 cells per well, free uptake, 2,000 nM modified oligonucleotide, approx. 48 hours, RTS4814, normalized to RIBOGREEN, Yap1 mRNA as percent of untreated control
[11] = Table 33, Yap1 mRNA, percent of untreated control, 3-10-3 cEt gapmers targeting SEQ ID NO.: 1, and 2
[12] = Table 32, Yap1 mRNA, percent of untreated control, 3-10-3 cEt gapmers targeting SEQ ID NO.: 1, and 2

1076272 (kT*kT*kA*dG*dA*dA*d[5mC]*dA*dA*d[5mC]*dT*dA*d[5mC]*kT*kA*k[5mC]; antisense) [compound 1076272]
YAP1 (% UTC) [1]: 53 % UTC

1076432 (k[5mC]*kA*kT*dT*dA*dG*dT*dA*dT*dT*d[5mC]*dA*d[5mC]*kT*kG*kT; antisense) [compound 1076432]
YAP1 (% UTC) [1]: 18 % UTC

1075377 (antisense k[5mC]*kT*kA*dG*dA*dA*dA*dG*dG*dT*dT*dG*dG*k[5mC]*k[5mC]*k[5mC]) [compound 1075377]
YAP1 (% UTC) [2]: 108 % UTC

1075752 (k[5mC]*kA*kT*dA*dA*dT*dT*dA*dT*dA*d[5mC]*dT*dG*kA*kT*k[5mC]; antisense) [Compound 1075752]
YAP1 (% UTC) [3]: 19 % UTC

716367 (k[5mC]*kA*kT*dG*dG*dG*d[5mC]*dA*d[5mC]*dG*dG*dT*d[5mC]*kT*kG*kG; antisense) [Compound 716367]
YAP1 (% UTC) [4]: 70 % UTC

1076305 (kT*kA*k[5mC]*dT*dA*dA*dT*dA*dA*dG*d[5mC]*d[5mC]*dT*k[5mC]*kA*k[5mC]; antisense) [compound 1076305]
YAP1 (% UTC) [2]: 37 % UTC

1074565 (antisense kA*k[5mC]*kT*dG*dA*dA*dT*dT*d[5mC]*d[5mC]*dA*dA*dT*k[5mC]*kG*kA) [Compound 1074565]
YAP1 (% UTC) [5]: 5 % UTC

1075274 (antisense kA*kA*kT*dA*dA*dT*d[5mC]*d[5mC]*dA*dG*d[5mC]*d[5mC]*dT*kA*kG*kG) [Compound 1075274]
YAP1 (% UTC) [6]: 86 % UTC

1075814 (kT*kA*kT*dA*dA*dA*dG*d[5mC]*dA*dG*dG*dG*d[5mC]*kA*kT*kT; antisense) [Compound 1075814]
YAP1 (% UTC) [7]: 47 % UTC

1074923 (antisense kG*kG*kG*d[5mC]*dG*dG*dT*dA*dA*d[5mC]*dT*d[5mC]*dT*kT*k[5mC]*kT) [Compound 1074923]
YAP1 (% UTC) [8]: 73 % UTC

716411 (kT*k[5mC]*kT*dG*d[5mC]*dT*dG*dT*dG*dA*dG*dG*dG*k[5mC]*kA*kG; antisense) [Compound 716411]
YAP1 (% UTC) [9]: 102 % UTC

1075818 (k[5mC]*kA*kT*dA*dA*d[5mC]*dT*dT*dA*dG*dA*dA*d[5mC]*k[5mC]*kA*kT; antisense) [Compound 1075818]
YAP1 (% UTC) [6]: 35 % UTC

1076106 (k[5mC]*kT*kA*d[5mC]*dG*dA*dA*dA*dT*dA*dG*dT*dA*kA*k[5mC]*kT; antisense) [Compound 1076106]
YAP1 (% UTC) [6]: 77 % UTC

1076164 (kT*kG*kA*dT*dA*dT*dA*dA*dG*dT*dT*dA*d[5mC]*k[5mC]*kA*kA; antisense) [Compound 1076164]
YAP1 (% UTC) [10]: 50 % UTC

1075379 (antisense kT*kA*k[5mC]*d[5mC]*dA*dA*dA*dA*d[5mC]*dT*dA*d[5mC]*dA*kA*k[5mC]*k[5mC]) [compound 1075379]
YAP1 (% UTC) [11]: 75 % UTC

1076260 (k[5mC]*kT*kT*dA*dA*dT*dT*dT*dA*dA*d[5mC]*dT*d[5mC]*k[5mC]*kT*kG; antisense) [Compound 1076260]
YAP1 (% UTC) [10]: 3 % UTC

1074955 (antisense k[5mC]*k[5mC]*k[5mC]*dG*dG*dG*dT*dT*dT*dT*dT*dG*dT*k[5mC]*kA*kT) [Compound 1074955]
YAP1 (% UTC) [8]: 93 % UTC

1075528 (kA*kT*k[5mC]*dG*dA*dA*dG*dG*dG*d[5mC]*dA*dA*dA*k[5mC]*kT*k[5mC]; antisense) [Compound 1075528]
YAP1 (% UTC) [3]: 42 % UTC

1075595 (kT*kA*kT*dA*dA*dT*dA*d[5mC]*dA*dT*d[5mC]*dT*d[5mC]*k[5mC]*k[5mC]*k[5mC]; antisense) [Compound 1075595]
YAP1 (% UTC) [8]: 50 % UTC

1075944 (kT*kA*kT*dT*dA*dG*dG*dA*dA*d[5mC]*dA*dG*dA*kT*k[5mC]*kA; antisense) [Compound 1075944]
YAP1 (% UTC) [3]: 25 % UTC

1075659 (kA*kA*kG*dT*dA*dA*dA*dA*dA*dA*d[5mC]*dG*dG*kT*kT*kT; antisense) [Compound 1075659]
YAP1 (% UTC) [8]: 125 % UTC

1074128 (k[5mC]*kT*k[5mC]*d[5mC]*dA*d[5mC]*dT*dG*dG*dT*d[5mC]*dT*dG*kG*k[5mC]*kG; antisense) [compound 1074128]
YAP1 (% UTC) [1]: 76 % UTC

1074853 (antisense k[5mC]*kA*kA*dT*dT*dG*dT*dT*dA*dT*dG*dA*dT*kA*kG*kG) [Compound 1074853]
YAP1 (% UTC) [5]: 15 % UTC

1075272 (antisense kA*kA*kT*dT*dA*dG*d[5mC]*d[5mC]*dA*dG*d[5mC]*dA*dT*kG*k[5mC]*kA) [Compound 1075272]
YAP1 (% UTC) [3]: 110 % UTC

1074866 (kA*kA*k[5mC]*dA*dT*dA*dT*dG*dA*dG*d[5mC]*dA*dT*kG*k[5mC]*kT; antisense) [compound 1074866]
YAP1 (% UTC) [12]: 30 % UTC

1074503 (k[5mC]*kA*kA*d[5mC]*dT*dA*d[5mC]*dA*dA*dT*dA*dA*d[5mC]*k[5mC]*kA*kT; antisense) [Compound 1074503]
YAP1 (% UTC) (Table 21, Yap1 mRNA, percent of untreated control, 3-10-3 cEt gapmers targeting SEQ ID NO.: 1 and 2): 29 % UTC

1076371 (antisense kT*kA*kA*dG*dA*dA*d[5mC]*dG*dA*dA*d[5mC]*d[5mC]*dT*k[5mC]*k[5mC]*kA) [compound 1076371]
YAP1 (% UTC) [11]: 49 % UTC

1074835 (k[5mC]*kT*kT*dG*d[5mC]*dG*dA*dG*dG*dA*dT*dA*dA*kA*kA*kT; antisense) [compound 1074835]
YAP1 (% UTC) [11]: 30 % UTC

1075364 (k[5mC]*kG*kA*dA*dA*dA*dT*dA*dG*dT*dT*d[5mC]*dT*k[5mC]*kA*kA; antisense) [Compound 1075364]
YAP1 (% UTC) [10]: 59 % UTC

1074538 (antisense kA*kT*k[5mC]*d[5mC]*dA*d[5mC]*dA*dG*dT*dA*dA*dT*dA*kG*k[5mC]*kT) [Compound 1074538]
YAP1 (% UTC) [6]: 31 % UTC

716529 (antisense k[5mC]*kA*kA*dA*d[5mC]*dT*d[5mC]*dA*dA*dA*dA*dA*dG*kG*kG*kA) [Compound 716529]
YAP1 (% UTC) [4]: 61 % UTC

716384 (kA*kG*kG*dA*d[5mC]*d[5mC]*dT*dG*dA*dA*dG*d[5mC]*d[5mC]*kG*kA*kG; antisense) [Compound 716384]
YAP1 (% UTC) [9]: 71 % UTC

1075206 (antisense kT*kA*kT*dT*dA*dA*dA*dT*dG*dA*dG*d[5mC]*dA*k[5mC]*k[5mC]*kA) [Compound 1075206]
YAP1 (% UTC) [7]: 36 % UTC

1074629 (antisense kG*kA*kG*dA*dT*dT*dT*dT*dA*dT*dG*d[5mC]*d[5mC]*kT*kG*kT) [Compound 1074629]
YAP1 (% UTC) [5]: 3 % UTC

716396 (k[5mC]*kA*kG*dT*dT*d[5mC]*dT*dT*dG*d[5mC]*dT*dG*dT*kT*kT*k[5mC]; antisense) [Compound 716396]
YAP1 (% UTC) [9]: 123 % UTC

716389 (kA*kG*k[5mC]*d[5mC]*dT*dT*dG*dG*dG*dT*d[5mC]*dT*dA*kG*k[5mC]*k[5mC]; antisense) [Compound 716389]
YAP1 (% UTC) (Table 5, A-431 cells, 5,000 cells per well, free uptake, 2,000 nM modified oligonucleotide, approx. 48 hours, RTS4814, normalized to RIBOGREEN, Yap1 mRNA relative to untreated control cells): 93 % UTC

1076491 (antisense kA*kG*k[5mC]*d[5mC]*dA*dA*dA*dA*dT*dA*dG*dG*dT*kG*kA*kG) [Compound 1076491]
YAP1 (% UTC) [8]: 12 % UTC

716463 (kG*kA*k[5mC]*dT*dG*d[5mC]*d[5mC]*d[5mC]*d[5mC]*dA*dA*d[5mC]*d[5mC]*kA*kG*kA; antisense) [Compound 716463]
YAP1 (% UTC) [4]: 64 % UTC

716370 (k[5mC]*kA*kG*dT*dG*d[5mC]*d[5mC]*dT*dG*d[5mC]*dA*dT*d[5mC]*kA*kG*kT; antisense) [Compound 716370]
YAP1 (% UTC) [4]: 25 % UTC

1076306 (k[5mC]*kT*kT*dT*dA*d[5mC]*dT*dA*d[5mC]*dT*dA*dA*dT*kA*kA*kG; antisense) [compound 1076306]
YAP1 (% UTC) [12]: 99 % UTC

1074442 (kG*kA*k[5mC]*d[5mC]*dA*dG*dT*dA*dA*dA*dT*d[5mC]*dA*kT*kG*kT; antisense) [Compound 1074442]
YAP1 (% UTC) [6]: 21 % UTC

1075780 (kT*kA*kT*dA*dA*dT*dA*dA*dT*d[5mC]*d[5mC]*dA*dG*kA*kA*k[5mC]; antisense) [Compound 1075780]
YAP1 (% UTC) [10]: 98 % UTC

1076330 (kG*kA*kA*dT*dT*dA*dT*dA*d[5mC]*dT*dG*dG*d[5mC]*kT*kA*k[5mC]; antisense) [Compound 1076330]
YAP1 (% UTC) [6]: 3 % UTC

1076082 (kT*k[5mC]*kT*d[5mC]*dA*dA*dT*dA*d[5mC]*dA*d[5mC]*dT*dA*kT*kA*kT; antisense) [compound 1076082]
YAP1 (% UTC) [12]: 38 % UTC

716550 (kG*k[5mC]*kA*d[5mC]*dT*dG*dA*dA*dT*dA*dT*dT*dG*k[5mC]*k[5mC]*kA; antisense) [Compound 716550]
YAP1 (% UTC) [4]: 77 % UTC
